Measured values: patent publication US20040161757A1, “Use of acetyl-coa carboxylase for identifying compounds that have an insecticidal effect” (priority 2000, published 2004)

Tested on: peach aphid Myzus persicae
Test: Impairment of lipid neogenesis: 14C-acetate feeding by the sachet method, lipid extract separated by TLC
Assay type: in vivo
Source text: Peach aphid Myzus persicae larvae or adults were fed for two days with nutrient solutions with and without one of the identified ACCase inhibitors, using the sachet method (Nauen et al. 1996).
Thereafter, the animals were collected and homogenized in organic solvent using a pestle and mortar. The organic phase was cleansed of water-soluble constituents by repeatedly extracting it by shaking with aqueous solution, and the solvent was then evaporated. The pellet which remained was taken up in a little solvent and separated by thin-layer chromatography (TLC). The lipids which were separated were stained with amido black. ^14C-acetate which was incorporated into the lipids was detected by autoradiography after an exposure time of 2-3 days. To quantify the ^14C-incorporation into lipids, the bands in question were scraped out after staining, dissolved, and the activity was determined in a scintillation counter. […] Thus, no de novo lipid synthesis from acetate has taken place. […] It can be seen clearly that increasing inhibitor concentrations halt the de-novo lipid biosynthesis.
The mobile phase used for the TLC chromatography was n-hexane: diethyl ether: glacial acetic acid (60:45:1).

COC1CCC2(CC1)NC(=O)C(c1c(C)cc(C)c(C)c1C)=C2O (centres unmarked) [I-A, 4-hydroxy-8-methoxy-3-(2,3,4,6-tetramethylphenyl)-1-azaspiro[4,5]dec-32-en-2-one]
radiolabeled 14C-acetate incorporated into lipids during de-novo synthesis (autoradiograph of TLC plate) (fed for two days, exposure time 2-3 days, FIG. 1b, treated vs control aphids): no labeled lipids are present
lipid composition and lipid content (lipid status after acetate feeding, TLC stained with amido black) (larvae or adults fed for two days with nutrient solution with vs without active ingredient, FIG. 1a lanes 4-6 vs 1-3): No significant differences
